According to patent US9682993B2, “Anticancer compounds” (ST. JUDE CHILDREN'S RESEARCH HOSPITAL, priority 2012, dated 2017):

What was measured:
Assay type in all cases: cell-based
SK-MEL-2 = assay: Drug combination assay, SK-MEL-2
Procedure: (§1) Preliminary cytotoxic screenings for each drug used in drug combination assays were performed to determine their cytotoxic dose range. […] Eight concentrations were established by 1:3 serial dilutions of the single drugs and their combinations with the splicing modulators. All drug concentrations were evaluated in triplicate in 96-well cell culture plates. Assays of individual drugs and drug combinations were run on the same tissue culture plate. Cell viability was determined using the CellTiter-Glo reagent.
(§2) Luminescence data obtained from the cell viability determinations were formatted per the requirements of the analytical software (viability data range: >0 and <1). The formatted data were analyzed with the software CalcuSyn 2.1 (Biosoft, Cambridge, UK), which provides quantitative CI values for the drug interaction analyses (see ranges in Supplementary Table S2).

cell lines investigated = assay: Drug combination assays, cell line not stated
Procedure: as §1, §2

HeLa = assay: Drug combination assay, HeLa; settings: HeLa; inhibitor + compound 19
Procedure: as §1, with “reagent. Drug interactions, in terms of synergism, additive effect, or antagonism, were based on the drugs' Combination Index (CI) (Chou et al., Adv. Enzyme Regul. 1984, 22, 27).” for “reagent.”
as §2, with “S2). […] Therefore, in these two cases the drug interaction was evaluated by comparing the IC50 value of Sudemycin with that of the IC50 values resulting from the serial dilutions of the splicing modulator combined with a constant dose of the non-toxic drug.” for “S2).”

PC-3 = assay: Drug combination assay, PC-3; settings: inhibitor + compound 19
Procedure: as §1, with “reagent. Drug interactions, in terms of synergism, additive effect, or antagonism, were based on the drugs' Combination Index (CI) (Chou et al., Adv. Enzyme Regul. 1984, 22, 27).” for “reagent.”
as §2, with “S2). […] Therefore, in these two cases the drug interaction was evaluated by comparing the IC50 value of Sudemycin with that of the IC50 values resulting from the serial dilutions of the splicing modulator combined with a constant dose of the non-toxic drug.” for “S2).”

Sk-N-AS = assay: Drug combination assay, Sk-N-AS neuroblastoma; settings: Sk-N-AS; inhibitor + compound 19
Procedure: as §1, §2

JeKo-1 = assay: Drug combination assay, JeKo-1; settings: inhibitor + compound 19
Procedure: as §1, with “reagent. Drug interactions, in terms of synergism, additive effect, or antagonism, were based on the drugs' Combination Index (CI) (Chou et al., Adv. Enzyme Regul. 1984, 22, 27).” for “reagent.”
as §2, with “S2). […] Therefore, in these two cases the drug interaction was evaluated by comparing the IC50 value of Sudemycin with that of the IC50 values resulting from the serial dilutions of the splicing modulator combined with a constant dose of the non-toxic drug.” for “S2).”

WiDr = assay: Drug combination assay, WiDr; settings: inhibitor + compound 19
Procedure: as §1, with “reagent. Drug interactions, in terms of synergism, additive effect, or antagonism, were based on the drugs' Combination Index (CI) (Chou et al., Adv. Enzyme Regul. 1984, 22, 27).” for “reagent.”
as §2, with “S2). […] Therefore, in these two cases the drug interaction was evaluated by comparing the IC50 value of Sudemycin with that of the IC50 values resulting from the serial dilutions of the splicing modulator combined with a constant dose of the non-toxic drug.” for “S2).”

CO[C@H]1C[C@@H]2CC[C@@H](C)[C@@](O)(O2)C(=O)C(=O)N2CCCC[C@H]2C(=O)O[C@H]([C@H](C)C[C@@H]2CC[C@@H](OC(=O)C(C)(CO)CO)[C@H](OC)C2)CC(=O)[C@H](C)/C=C(\C)[C@@H](O)[C@@H](OC)C(=O)[C@H](C)C[C@H](C)/C=C/C=C/C=C/1C [Temsirolimus] was tested, and the “CI in SK-MEL-2 with compound 19” value (SK-MEL-2; Combination Index at ED50, CalcuSyn 2.1, listed drug + compound 19) was 0.68, the “CI of 19 + inhibitor” value (SK-MEL-2; SK-MEL-2, inhibitor + compound 19) was 0.68 and the “Interaction Type” value (SK-MEL-2; listed drug combined with compound 19, Ineffective = drug IC50 much higher than 1 μM) was “Synergism (0.3-0.7)”. The “drug interaction with compound 20” value (cell lines investigated) was “demonstrated synergy”, the “CI of 19 + inhibitor” value (HeLa) was 0.35 and the “CI of 19 + inhibitor” value (PC-3) was 0.57. For the same molecule, the “CI of 19 + inhibitor” value (Sk-N-AS) was 0.58, the “CI of 19 + inhibitor” value (JeKo-1) was 0.37 and the “CI of 19 + inhibitor” value (WiDr) was 0.44.
